The target in the test is Fatty acid synthase (Homo sapiens) (UniProt P49327). In words: potency against FAS-TE enzyme – biochemical, fluorescence intensity, OMFH substrate, dose response (AID 1347040). The conditions noted are these: recombinant FAS-TE, OMFH fluorogenic substrate.

The source made the active and inactive calls.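 The calls were made as follows: active = IC50 at or below 20 µM (some results past the limit were not filed as active); inactive = the rest.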

Usually IC50 stands for the concentration needed to halve the response being measured.

Chain of Fatty acid synthase (Homo sapiens) (P49327 whole entry, looked up): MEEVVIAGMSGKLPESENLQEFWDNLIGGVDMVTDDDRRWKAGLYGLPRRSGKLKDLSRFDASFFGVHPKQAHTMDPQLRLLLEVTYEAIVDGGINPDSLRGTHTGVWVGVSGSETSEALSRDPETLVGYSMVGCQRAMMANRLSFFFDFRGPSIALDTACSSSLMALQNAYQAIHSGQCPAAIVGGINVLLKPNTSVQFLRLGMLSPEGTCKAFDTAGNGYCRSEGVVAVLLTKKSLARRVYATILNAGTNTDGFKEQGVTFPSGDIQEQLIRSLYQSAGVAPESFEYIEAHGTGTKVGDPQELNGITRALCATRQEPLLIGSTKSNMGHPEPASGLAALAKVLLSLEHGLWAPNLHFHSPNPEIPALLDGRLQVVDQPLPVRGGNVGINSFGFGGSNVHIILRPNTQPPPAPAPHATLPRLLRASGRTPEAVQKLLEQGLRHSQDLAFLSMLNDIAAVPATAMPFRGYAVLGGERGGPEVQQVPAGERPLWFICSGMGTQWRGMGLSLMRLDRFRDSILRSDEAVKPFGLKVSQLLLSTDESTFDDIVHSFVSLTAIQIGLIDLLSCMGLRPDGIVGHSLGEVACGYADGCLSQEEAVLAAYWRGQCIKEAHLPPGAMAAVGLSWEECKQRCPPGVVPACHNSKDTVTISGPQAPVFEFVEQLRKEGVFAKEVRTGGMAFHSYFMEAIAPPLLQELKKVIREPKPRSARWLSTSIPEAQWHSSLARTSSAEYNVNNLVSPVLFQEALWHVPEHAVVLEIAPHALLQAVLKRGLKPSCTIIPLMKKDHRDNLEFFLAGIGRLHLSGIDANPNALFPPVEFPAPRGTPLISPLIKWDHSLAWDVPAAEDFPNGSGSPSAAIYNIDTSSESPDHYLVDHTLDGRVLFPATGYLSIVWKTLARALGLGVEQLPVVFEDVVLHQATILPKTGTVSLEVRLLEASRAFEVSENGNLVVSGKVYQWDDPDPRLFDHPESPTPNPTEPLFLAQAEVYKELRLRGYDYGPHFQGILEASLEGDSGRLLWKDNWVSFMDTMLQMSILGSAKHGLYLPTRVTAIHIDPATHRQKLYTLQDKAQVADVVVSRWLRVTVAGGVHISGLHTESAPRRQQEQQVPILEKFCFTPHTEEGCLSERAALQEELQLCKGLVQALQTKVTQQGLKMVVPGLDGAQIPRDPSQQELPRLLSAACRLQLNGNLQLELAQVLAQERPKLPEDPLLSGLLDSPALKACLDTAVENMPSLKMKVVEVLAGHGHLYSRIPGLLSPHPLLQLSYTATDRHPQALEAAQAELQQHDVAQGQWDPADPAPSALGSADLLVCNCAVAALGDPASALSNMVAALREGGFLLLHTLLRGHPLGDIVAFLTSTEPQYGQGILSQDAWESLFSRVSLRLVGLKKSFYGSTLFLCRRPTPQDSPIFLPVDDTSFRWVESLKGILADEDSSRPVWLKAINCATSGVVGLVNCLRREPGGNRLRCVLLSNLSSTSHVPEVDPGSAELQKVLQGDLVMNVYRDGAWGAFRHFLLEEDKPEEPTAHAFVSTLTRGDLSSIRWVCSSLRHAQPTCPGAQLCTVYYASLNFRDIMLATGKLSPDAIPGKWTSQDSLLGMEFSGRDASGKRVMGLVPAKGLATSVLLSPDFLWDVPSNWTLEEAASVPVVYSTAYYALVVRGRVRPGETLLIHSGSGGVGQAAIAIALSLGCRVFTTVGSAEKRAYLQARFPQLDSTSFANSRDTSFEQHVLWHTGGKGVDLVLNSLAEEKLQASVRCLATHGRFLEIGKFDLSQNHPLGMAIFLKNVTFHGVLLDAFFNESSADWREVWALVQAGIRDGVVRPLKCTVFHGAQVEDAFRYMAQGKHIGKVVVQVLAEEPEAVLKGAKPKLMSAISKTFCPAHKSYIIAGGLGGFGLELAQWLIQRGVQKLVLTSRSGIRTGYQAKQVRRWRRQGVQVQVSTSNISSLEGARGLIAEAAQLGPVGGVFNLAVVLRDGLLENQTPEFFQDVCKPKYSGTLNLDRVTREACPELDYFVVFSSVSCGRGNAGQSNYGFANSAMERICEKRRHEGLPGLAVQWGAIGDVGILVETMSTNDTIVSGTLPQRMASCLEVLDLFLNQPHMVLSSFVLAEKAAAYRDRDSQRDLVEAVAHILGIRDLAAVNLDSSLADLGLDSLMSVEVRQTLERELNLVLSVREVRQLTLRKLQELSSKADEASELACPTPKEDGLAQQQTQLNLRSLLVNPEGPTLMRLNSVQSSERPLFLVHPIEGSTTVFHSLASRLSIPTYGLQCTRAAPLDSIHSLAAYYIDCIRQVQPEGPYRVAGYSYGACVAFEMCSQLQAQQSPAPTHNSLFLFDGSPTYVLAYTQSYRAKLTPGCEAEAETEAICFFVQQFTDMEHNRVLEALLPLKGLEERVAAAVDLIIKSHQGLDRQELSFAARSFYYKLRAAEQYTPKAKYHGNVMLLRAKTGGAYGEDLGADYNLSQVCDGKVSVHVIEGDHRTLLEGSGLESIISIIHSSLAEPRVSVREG

For the molecule `CCN(CC)S(=O)(=O)c1ccc(-c2csc(Cc3ccccc3F)n2)cc1`, the IC50 was 0.631 µM.

For the molecule `O=S(=O)(c1ccc(-c2csc(-c3ccc(F)cc3)n2)cc1)N1CCOCC1`, the IC50 was 0.291 µM.

Regarding `O=C(Cc1ccc(S(=O)(=O)N2CCOCC2)s1)NCc1ccccc1`, the IC50 is > 30 µM (inactive).

Take `CCN(CC)S(=O)(=O)c1ccc(-c2csc(Cc3ccc(F)cc3)n2)cc1`: the IC50 was 0.918 µM.

With `CCN(CC)S(=O)(=O)c1ccc(-c2csc(Cc3cccc(I)c3)n2)cc1`, the IC50 was 8.69 µM.

As to `Cc1cc(C)c(S(=O)(=O)N2CCN(C(=O)Cc3ccc(S(=O)(=O)N4CCOCC4)s3)CC2)c(C)c1`, the IC50 was 33.2 µM.

As for `CCN(CC)S(=O)(=O)c1ccc(-c2csc(C(C)C)n2)cc1`, the IC50 was 4.2 µM.

Consider `O=C(Cc1ccc(S(=O)(=O)N2CCOCC2)s1)N1CCN(S(=O)(=O)c2ccccc2)CC1`, for which the IC50 was 44.6 µM.

For the molecule `O=C(Cc1ccc(S(=O)(=O)N2CCOCC2)s1)N1CCN(S(=O)(=O)Cc2ccccc2)CC1`, the IC50 is > 30 µM (inactive).

Consider `CCN(CC)S(=O)(=O)c1ccc(-c2csc(C(c3ccccc3)c3ccccc3)n2)cc1`, for which the IC50 was 5.28 µM.

Consider `CCN(CC)S(=O)(=O)c1ccc(-c2csc(-c3ccc(Br)cc3C)n2)cc1`, for which the IC50 is 17.2 µM.

As for `CCN(CC)S(=O)(=O)c1ccc(-c2csc(-c3ccc(Br)cc3)n2)cc1`, the IC50 is 10 µM.

As for `CCc1nc(-c2ccc(S(=O)(=O)N(CC)CC)cc2)cs1`, the IC50 was 51.7 µM.

In the case of `CCN(CC)S(=O)(=O)c1ccc(-c2csc(Cc3cccc(C(F)(F)F)c3)n2)cc1`, the IC50 was 3.26 µM.

As for `CCN(CC)S(=O)(=O)c1ccc(-c2csc(-c3cccc(Br)c3)n2)cc1`, the IC50 was 5.04 µM.

For `CCN(CC)S(=O)(=O)c1ccc(-c2csc(-c3ccc(Cl)cc3)n2)cc1`, the IC50 is 10 µM.

Take `CCN(CC)S(=O)(=O)c1ccc(-c2csc(-c3ccc(F)cc3)n2)cc1`: the IC50 is 0.5 µM.

As to `CS(=O)(=O)N1CCN(C(=O)Cc2ccc(S(=O)(=O)N3CCOCC3)s2)CC1`, the IC50 is > 30 µM (inactive).

Turning to `CCN(CC)S(=O)(=O)c1ccc(-c2csc(C(C)(C)C)n2)cc1`, the IC50 was 2.6 µM.

As for `O=C(Cc1ccc(S(=O)(=O)N2CCOCC2)s1)N1CCN(S(=O)(=O)c2ccc(F)cc2)CC1`, the IC50 result is “inactive”.

As to `CCN(CC)S(=O)(=O)c1ccc(-c2csc(Cc3ccccc3OC)n2)cc1`, the IC50 is 5.38 µM.

For `CC(C)(C)c1ccc(CNC(=O)Cc2ccc(S(=O)(=O)N3CCOCC3)s2)cc1`, the IC50 is 14.3 µM.

Consider `CC(C)S(=O)(=O)N1CCN(C(=O)Cc2ccc(S(=O)(=O)N3CCOCC3)s2)CC1`, for which the IC50 is > 30 µM (inactive).

In the case of `CC(C)c1nc(-c2ccc(S(=O)(=O)N3CCOCC3)cc2)cs1`, the IC50 is 5.8 µM.

On to `CCN(CC)S(=O)(=O)c1ccc(-c2csc(Cc3cccc(F)c3)n2)cc1`, for which the IC50 was 1.17 µM.

These data come from PubChem BioAssay AID1347040 (Sanford-Burnham Center for Chemical Genomics, 2019).
